Source: patent US11161830B2, “4-pyridone compound or salt thereof, and pharmaceutical composition and formulation including same” (priority 2017, dated 2021)
Several values for one entry are separate records, joined by “and”; a condition that tells them apart may be missing. Identical values can stand only once.

What was measured:
HBV genotype C [1] = test: Test Example 3-3: in vivo efficacy study in PXB mouse (chimeric mouse with human hepatocytes); design: species or system hepatitis B virus; settings: individual mice
Description: An in vivo efficacy study with a PXB mouse (a chimeric mouse with human hepatocytes) was carried out in PhenixBio Co., Ltd. Male mice having body weights of 15 g or more after the elapse of 8 weeks from the infection with HBV genotype C were allocated into the respective groups and used.
The compounds of Example 20-2 was orally administered at 2 mg/kg, 6 mg/kg, and 20 mg/kg once a day, and at 1 mg/kg, 3 mg/kg, and 10 mg/kg twice a day, or 0.5% methylcellulose (vehicle) was orally administered once a day for 14 days. A first administration day was taken as day 0, and before administration on day 0, day 3, Day 7, and day 10, and on day 14, the blood was collected from the orbital venous plexus under anesthesia with isoflurane.
(§1) The serum was separated from the collected blood and purified with a QIAamp (registered trademark) DNA Blood Mini Kit (manufactured by QIAGEN). The amount of HBV-DNA in the obtained solution was absolutely quantified by a real-time PCR method. In addition, the amount of HBsAg in the serum was absolutely quantified by chemiluminescent enzyme immunoassay using Lumnipulse (registered trademark) HBsAg-HQ (manufactured by Fujirebio Inc.).

HBV genotype C [2] = test: Test Example 3-2: in vivo efficacy study in PXB mouse (chimeric mouse with human hepatocytes), first and second study; design: species or system hepatitis B virus; settings: second study, orally 3 mg/kg twice a day for 14 days from day 35, individual mice, 3 mg/kg
Description: An in vivo efficacy study with a PXB mouse (a chimeric mouse with human hepatocytes) was carried out in PhenixBio Co., Ltd. 19-Week-or-more-old male mice having body weights of 10.5 g or more after the elapse of 13 weeks or more from the infection with HBV genotype C were allocated into the respective groups and used. The studies were carried out twice, and a 21-day administration withdrawal period was provided between the first study and the second study.
The first administration day in the first study was taken as day 0, and the compound of Example 6-5 was orally administered at 1 mg/kg, 3 mg/kg, 10 mg/kg, and 30 mg/kg twice a day, or 0.5% methylcellulose (vehicle) was orally administered once a day for 14 days. Before administration on day 0, day 3, Day 7, and day 10, and on day 14, the blood was collected from the orbital venous plexus under anesthesia with isoflurane.
The first administration day in the second study was taken as day 35, and the compounds of Examples 19-2 and 20-2 were each orally administered at 3 mg/kg twice a day, or 0.5% methylcellulose (vehicle) was orally administered once a day for 14 days. Before administration on day 35, day 38, day 42, and day 45, the blood was collected from the orbital venous plexus under anesthesia with isoflurane. On day 49, the blood was collected from the heart under anesthesia with isoflurane.
as §1, with “Lumipulse” for “Lumnipulse”

[3] = orally 1 mg/kg twice a day, Day 0 (before administration), 1 mg/kg
[4] = orally 1 mg/kg twice a day, Day 3, 1 mg/kg
[5] = orally 1 mg/kg twice a day, Day 7, 1 mg/kg
[6] = orally 1 mg/kg twice a day, Day 10, 1 mg/kg
[7] = orally 1 mg/kg twice a day, Day 14, 1 mg/kg
[8] = orally 2 mg/kg once a day, Day 0 (before administration), 2 mg/kg
[9] = orally 2 mg/kg once a day, Day 3, 2 mg/kg
[10] = orally 2 mg/kg once a day, Day 7, 2 mg/kg
[11] = orally 2 mg/kg once a day, Day 10, 2 mg/kg
[12] = orally 2 mg/kg once a day, Day 14, 2 mg/kg
[13] = orally 3 mg/kg twice a day, Day 0 (before administration), 3 mg/kg
[14] = orally 3 mg/kg twice a day, Day 3, 3 mg/kg
[15] = orally 3 mg/kg twice a day, Day 7, 3 mg/kg
[16] = orally 3 mg/kg twice a day, Day 10, 3 mg/kg
[17] = orally 3 mg/kg twice a day, Day 14, 3 mg/kg
[18] = orally 6 mg/kg once a day, Day 0 (before administration), 6 mg/kg
[19] = orally 6 mg/kg once a day, Day 3, 6 mg/kg
[20] = orally 6 mg/kg once a day, Day 7, 6 mg/kg
[21] = orally 6 mg/kg once a day, Day 10, 6 mg/kg
[22] = orally 6 mg/kg once a day, Day 14, 6 mg/kg
[23] = orally 10 mg/kg twice a day, Day 0 (before administration), 10 mg/kg
[24] = orally 10 mg/kg twice a day, Day 3, 10 mg/kg
[25] = orally 10 mg/kg twice a day, Day 7, 10 mg/kg
[26] = orally 10 mg/kg twice a day, Day 10, 10 mg/kg
[27] = orally 10 mg/kg twice a day, Day 14, 10 mg/kg
[28] = orally 20 mg/kg once a day, Day 0 (before administration), 20 mg/kg
[29] = orally 20 mg/kg once a day, Day 3, 20 mg/kg
[30] = orally 20 mg/kg once a day, Day 7, 20 mg/kg
[31] = orally 20 mg/kg once a day, Day 10, 20 mg/kg
[32] = orally 20 mg/kg once a day, Day 14, 20 mg/kg

COC1CN(c2nc3ccc(-n4cc(C(=O)O)c(=O)cc4-c4ccc(N5CC[C@@H](OC)C5)c(F)c4)cc3s2)C1 [Example 20-2]
HBV-DNA in blood (HBV genotype C [1]; [3]): 2.8E+08 copies/mL and 1.4E+08 copies/mL | HBsAg in serum (HBV genotype C [1]; [3]): 3,352 IU/mL and 2,640 IU/mL and 4,436 IU/mL | HBV-DNA in blood (HBV genotype C [1]; [4]): 1.7E+08 copies/mL and 1.2E+08 copies/mL and 3.7E+08 copies/mL | HBsAg in serum (HBV genotype C [1]; [4]): 3,056 IU/mL and 2,193 IU/mL and 4,655 IU/mL | HBV-DNA in blood (HBV genotype C [1]; [5]): 1.4E+08 copies/mL | HBsAg in serum (HBV genotype C [1]; [5]): 3,033 IU/mL and 1,691 IU/mL and 3,774 IU/mL | HBV-DNA in blood (HBV genotype C [1]; [6]): 1.4E+08 copies/mL and 3.7E+08 copies/mL | HBsAg in serum (HBV genotype C [1]; [6]): 2,356 IU/mL and 1,694 IU/mL and 3,775 IU/mL | HBV-DNA in blood (HBV genotype C [1]; [7]): 2.5E+08 copies/mL and 1.3E+08 copies/mL and 6.9E+08 copies/mL | HBsAg in serum (HBV genotype C [1]; [7]): 2,833 IU/mL and 2,077 IU/mL and 4,276 IU/mL | HBV-DNA in blood (HBV genotype C [1]; [8]): 4.5E+08 copies/mL and 4.7E+08 copies/mL and 4.4E+08 copies/mL | HBsAg in serum (HBV genotype C [1]; [8]): 2,534 IU/mL and 2,701 IU/mL and 3,776 IU/mL | HBV-DNA in blood (HBV genotype C [1]; [9]): 3.3E+08 copies/mL | HBsAg in serum (HBV genotype C [1]; [9]): 2,393 IU/mL and 1,918 IU/mL and 3,502 IU/mL | HBV-DNA in blood (HBV genotype C [1]; [10]): 1.7E+08 copies/mL and 5.3E+08 copies/mL | HBsAg in serum (HBV genotype C [1]; [10]): 1,612 IU/mL and 2,211 IU/mL and 3,236 IU/mL | HBV-DNA in blood (HBV genotype C [1]; [11]): 4.2E+08 copies/mL and 4.3E+08 copies/mL and 3.9E+08 copies/mL | HBsAg in serum (HBV genotype C [1]; [11]): 1,946 IU/mL and 1,609 IU/mL and 3,623 IU/mL | HBV-DNA in blood (HBV genotype C [1]; [12]): 4.3E+08 copies/mL | HBsAg in serum (HBV genotype C [1]; [12]): 1,526 IU/mL and 2,321 IU/mL and 3,366 IU/mL | HBV-DNA in blood (HBV genotype C [1]; [13]): 3.4E+08 copies/mL and 3.8E+08 copies/mL | HBsAg in serum (HBV genotype C [1]; [13]): 2,582 IU/mL and 2,395 IU/mL and 3,879 IU/mL | HBV-DNA in blood (HBV genotype C [1]; [14]): 2.2E+08 copies/mL and 1.8E+08 copies/mL and 2.1E+08 copies/mL | HBsAg in serum (HBV genotype C [1]; [14]): 1,034 IU/mL and 1,048 IU/mL and 1,801 IU/mL | HBV-DNA in blood (HBV genotype C [1]; [15]): 2.8E+08 copies/mL and 1.2E+08 copies/mL and 1.8E+08 copies/mL | HBsAg in serum (HBV genotype C [1]; [15]): 1,275 IU/mL and 785 IU/mL and 1,286 IU/mL | HBV-DNA in blood (HBV genotype C [1]; [16]): 4.3E+08 copies/mL | HBsAg in serum (HBV genotype C [1]; [16]): 1,017 IU/mL and 900 IU/mL and 1,379 IU/mL | HBV-DNA in blood (HBV genotype C [1]; [17]): 3.7E+08 copies/mL and 3.4E+08 copies/mL and 3.6E+08 copies/mL | HBsAg in serum (HBV genotype C [1]; [17]): 1,051 IU/mL and 910 IU/mL and 1,375 IU/mL | HBV-DNA in blood (HBV genotype C [1]; [18]): 6.7E+08 copies/mL and 1.6E+08 copies/mL and 4.3E+08 copies/mL | HBsAg in serum (HBV genotype C [1]; [18]): 3,883 IU/mL and 1,905 IU/mL and 3,703 IU/mL | HBV-DNA in blood (HBV genotype C [1]; [19]): 3.8E+08 copies/mL and 2.0E+08 copies/mL and 1.7E+08 copies/mL | HBsAg in serum (HBV genotype C [1]; [19]): 3,331 IU/mL and 1,529 IU/mL and 2,004 IU/mL | HBV-DNA in blood (HBV genotype C [1]; [20]): 1.5E+08 copies/mL and 3.3E+08 copies/mL | HBsAg in serum (HBV genotype C [1]; [20]): 3,453 IU/mL and 1,321 IU/mL and 2,025 IU/mL | HBV-DNA in blood (HBV genotype C [1]; [21]): 3.8E+08 copies/mL and 2.2E+08 copies/mL and 1.5E+08 copies/mL | HBsAg in serum (HBV genotype C [1]; [21]): 2,920 IU/mL and 1,342 IU/mL and 1,100 IU/mL | HBV-DNA in blood (HBV genotype C [1]; [22]): 2.2E+08 copies/mL and 1.5E+08 copies/mL and 7.7E+08 copies/mL | HBsAg in serum (HBV genotype C [1]; [22]): 2,569 IU/mL and 1,312 IU/mL and 1,879 IU/mL | HBV-DNA in blood (HBV genotype C [1]; [23]): 4.2E+08 copies/mL and 3.8E+08 copies/mL | HBsAg in serum (HBV genotype C [1]; [23]): 3,678 IU/mL and 2,545 IU/mL and 3,727 IU/mL | HBV-DNA in blood (HBV genotype C [1]; [24]): 1.7E+08 copies/mL and 2.5E+08 copies/mL | HBsAg in serum (HBV genotype C [1]; [24]): 994 IU/mL and 735 IU/mL and 901 IU/mL | HBV-DNA in blood (HBV genotype C [1]; [25]): 2.1E+08 copies/mL and 1.6E+08 copies/mL and 1.1E+08 copies/mL | HBsAg in serum (HBV genotype C [1]; [25]): 707 IU/mL and 547 IU/mL and 708 IU/mL | HBV-DNA in blood (HBV genotype C [1]; [26]): 1.5E+08 copies/mL and 1.7E+08 copies/mL | HBsAg in serum (HBV genotype C [1]; [26]): 861 IU/mL and 593 IU/mL and 676 IU/mL | HBV-DNA in blood (HBV genotype C [1]; [27]): 2.0E+08 copies/mL | HBsAg in serum (HBV genotype C [1]; [27]): 931 IU/mL and 620 IU/mL and 738 IU/mL | HBV-DNA in blood (HBV genotype C [1]; [28]): 2.8E+08 copies/mL | HBsAg in serum (HBV genotype C [1]; [28]): 3,225 IU/mL and 3,886 IU/mL and 2,106 IU/mL | HBV-DNA in blood (HBV genotype C [1]; [29]): 2.1E+08 copies/mL and 2.0E+08 copies/mL and 9.7E+07 copies/mL | HBsAg in serum (HBV genotype C [1]; [29]): 1,239 IU/mL and 1,019 IU/mL and 517 IU/mL | HBV-DNA in blood (HBV genotype C [1]; [30]): 1.6E+08 copies/mL and 1.4E+08 copies/mL and 8.2E+07 copies/mL | HBsAg in serum (HBV genotype C [1]; [30]): 1,003 IU/mL and 877 IU/mL and 385 IU/mL | HBV-DNA in blood (HBV genotype C [1]; [31]): 3.3E+08 copies/mL and 2.5E+08 copies/mL and 1.5E+08 copies/mL | HBsAg in serum (HBV genotype C [1]; [31]): 1,200 IU/mL and 1,104 IU/mL and 493 IU/mL | HBV-DNA in blood (HBV genotype C [1]; [32]): 2.1E+08 copies/mL and 2.9E+08 copies/mL and 1.6E+08 copies/mL | HBsAg in serum (HBV genotype C [1]; [32]): 1,037 IU/mL and 1,159 IU/mL and 497 IU/mL | HBV-DNA in blood (HBV genotype C [2]; Day 35 (before administration)): 8.2E+08 copies/mL and 8.3E+08 copies/mL | HBsAg in serum (HBV genotype C [2]; Day 35 (before administration)): 2,556 IU/mL and 3,408 IU/mL | HBV-DNA in blood (HBV genotype C [2]; Day 38): 4.6E+08 copies/mL and 4.0E+08 copies/mL | HBsAg in serum (HBV genotype C [2]; Day 38): 948 IU/mL and 1,061 IU/mL | HBV-DNA in blood (HBV genotype C [2]; Day 42): 2.6E+08 copies/mL and 5.0E+08 copies/mL | HBsAg in serum (HBV genotype C [2]; Day 42): 832 IU/mL and 1,478 IU/mL | HBV-DNA in blood (HBV genotype C [2]; Day 45): 3.5E+08 copies/mL and 3.1E+08 copies/mL | HBsAg in serum (HBV genotype C [2]; Day 45): 859 IU/mL and 1,185 IU/mL | HBV-DNA in blood (HBV genotype C [2]; Day 49): 2.3E+08 copies/mL and 2.7E+08 copies/mL | HBsAg in serum (HBV genotype C [2]; Day 49): 1,444 IU/mL and 924 IU/mL
